This is an account of results in US20230026232A1, “AHR INHIBITORS AND USES THEREOF” (Ikena Oncology, Inc., priority 2019, published 2023).

Structures are written as SMILES. pIC50: −log10 of the molar value. Values after ≈ are worked out from the molar mass of the structure shown.

Series [1] can be described thus: Solubility of bulk API in biorelevant media by HPLC. The format is physicochemical. Conditions: thermodynamic from solid, up to 24 hours. As to the method: Solubility of bulk APIs was conducted in various biorelevant media. Small amounts of API were suspended in media and continuously agitated at room temperature for a period up to 24 hours. Samples were centrifuged to pellet out undissolved solids and the resulting supernatant was sampled, diluted, and analyzed by HPLC utilizing the short-assay method sued for dissolution sample analysis. Both forms show poor gastric solubility, with the maleate salt displaying an order of magnitude larger solubility in intestinal media.

Series [2] can be described thus: Intrinsic dissolution in 0.5% Tween 80. The format is physicochemical. Conditions: 0.5% Tween 80, 100 rpm, 37° C. As to the method:
Milled and as-received API samples were weighed and compressed into a compact using a hydraulic press at 3,000 psi for 60 seconds. Compacts were mounted on intrinsic dissolution apparatus and dissolution study was conducted using USP dissolution apparatus in 250 mL of 0.5% Tween 80 solution at 100 rpm at 37° C. in duplicate. Aliquots (1.0 mL) of dissolution media are taken at selected time-points from each dissolution vessel at 5 minute intervals from 5 to 40 minutes. Each sample was centrifuged at 14,000 rpm for 3 minutes and the supernatant was samples and diluted with diluent for HPLC analysis (Table 7). The retention time of Compound A is about 1.5 minutes.
The Intrinsic dissolution performance of the jet-milled API vs. as received API was conducted to observe any increase in dissolution by particle size reduction. FIG. 8 and Table 15 below show the intrinsic dissolution results.

Series [3] can be described thus: Glass transition temperature (Tg) by MDSC. The format is physicochemical. Conditions: for Tg: bulk API, melt-quench amorphous, MDSC. How it is done:
DSC was performed using a TA Instruments Discovery DSC2500 differential scanning calorimeter equipped with a TA instruments Refrigerated Cooling System 90 operating in either modulated or ramp mode. DSC was used to measure thermodynamic events and characteristics of Compound A free base and hemi-maleate salt, and subsequent SDIs. Events observed include the glass transition temperature (Tg), cold crystallization (Tc), defined as a crystallization event at a temperature lower than the melt temperature, and melting temperature (Tm). SDI samples were placed in non-hermetic aluminum pans and heated at a constant rate of 2.0° C./min over a 5-200° C. temperature range. The system was purged by nitrogen flow at 50 mL/min to ensure inert atmosphere through the course of measurement. […] Amorphous API was successfully created by rapidly quenching liquefied Compound A using Refrigerated Cooling System 90. The resulting amorphous API was analyzed by modulated DSC. A summary of DSC analysis parameters can be found in Tables 2 and 3.
Thermal properties of both Compound A forms were measured by both DSC and MDSC. […] The Tg of each was measured via a melt-quench technique, heating past its melting temperature and rapidly cooling to trap the molten material in an amorphous state. […] (FIG. 2/Table 11).
Samples were stored at the elevated humidity conditions for 18 hours at ambient temperature before sealing in hermetic pans and analysis by MDSC. Results are reported as a function of relative humidity (RH) in FIG. 13 and Table 20. All lead SDI formulations (HPMCAS-H and PVP VA64 dispersions) have a Tg that is low at elevated humidity conditions and is predicted to require conservative packaging (i.e., desiccant, foil-foil seal, or etc.) to obtain sufficient long-term physical stability of the SDI. To ensure long-term physical stability in open packaging at all ICH conditions, it is desirable that the SDI have a Tg higher than 50° C. at 75% RH, and ideally higher than 60° C. at 75% RH.

Series [4] addresses T1, AHR (Homo sapiens, UniProt P35869).
T1 sequence (P35869 11-848): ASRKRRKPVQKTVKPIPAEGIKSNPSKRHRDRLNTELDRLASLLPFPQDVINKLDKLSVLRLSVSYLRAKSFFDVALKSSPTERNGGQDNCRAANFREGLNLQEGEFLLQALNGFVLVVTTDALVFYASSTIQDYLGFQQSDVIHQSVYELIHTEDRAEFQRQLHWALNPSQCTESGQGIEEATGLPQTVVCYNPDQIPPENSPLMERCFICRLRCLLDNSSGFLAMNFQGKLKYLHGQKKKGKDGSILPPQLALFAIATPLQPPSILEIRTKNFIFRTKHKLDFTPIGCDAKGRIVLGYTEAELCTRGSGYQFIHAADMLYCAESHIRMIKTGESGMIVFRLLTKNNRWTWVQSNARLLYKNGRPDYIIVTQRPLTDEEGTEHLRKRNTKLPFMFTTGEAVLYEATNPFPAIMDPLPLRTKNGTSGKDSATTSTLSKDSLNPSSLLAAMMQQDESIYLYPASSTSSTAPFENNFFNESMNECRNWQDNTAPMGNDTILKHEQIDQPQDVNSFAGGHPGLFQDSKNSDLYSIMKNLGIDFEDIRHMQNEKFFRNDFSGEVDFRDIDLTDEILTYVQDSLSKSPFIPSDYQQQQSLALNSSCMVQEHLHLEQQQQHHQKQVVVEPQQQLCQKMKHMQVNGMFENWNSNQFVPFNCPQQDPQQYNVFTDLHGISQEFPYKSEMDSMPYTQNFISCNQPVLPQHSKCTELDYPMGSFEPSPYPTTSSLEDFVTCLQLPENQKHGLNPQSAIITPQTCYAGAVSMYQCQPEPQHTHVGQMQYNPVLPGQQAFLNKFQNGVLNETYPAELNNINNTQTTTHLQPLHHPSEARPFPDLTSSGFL
Nature of the series: CYP1A1 expression in CD3/CD28 activated human T cells (qRT-PCR). Format: cell-based. Details: endogenous in cells. The note with it: 24 hours. As to the method:
(§1) AHR plays a key role in immune cells and its' inhibition is proposed to reverse immune suppression and activate T cells. The ability of Compound A to inhibit AHR-dependent CYP1A1 expression and cytokine production was assessed in primary human T cells. AHR directly regulates the expression of the immune suppressive cytokine IL-22. Human T cells isolated from healthy donor PBMCs were activated with CD3/CD28 tetramer and incubated for 24 hours with Compound A. Cell pellets were processed for RNA isolation and CYP1A1 analysis by quantitative reverse-transcriptase polymerase chain reaction. For the cytokine analysis assay, CD3/CD28 activated T cells were treated with Compound A, and culture supernatants were collected after 48 hours for analysis of IL-22 levels using Meso Scale Discovery V-plex IL-22 plates. Compound A inhibited AHR-dependent gene expression in activated human T cells by decreasing expression of CYP1A1 in a concentration-dependent manner.
(In general: Quantitative PCR measures a nucleic acid by following its amplification.)

Series [5] addresses T1, AHR. Nature of the series: IL-22 secretion by CD3/CD28 activated human T cells (Meso Scale Discovery). The format is cell-based. Also noted: endogenous in cells. The note with it: 48 hours. How it is done:
as §1

Consider `CC(C)c1cnn2c(N[C@@H]3CCc4[nH]c5ccccc5c4C3)nc(-c3cncc(F)c3)nc12` [Compound A, (R)—N-(2-(5-fluoropyridin-3-yl)-8-isopropylpyrazolo[1,5-a][1,3,5]triazin-4-yl)-2,3,4,9-tetrahydro-1H-carbazol-3-amine], for which the solubility (as a rule, the concentration that dissolves in the medium under given conditions) in series [1] (simulated gastric fluid, 0.1N HCl, room temperature) is under 0.5 µg/mL; in series [1] (FaSSIF, pH 6.8, room temperature), 1.4 µg/mL (≈ 3.17 µM). The “IDR (intrinsic dissolution rate)” value in series [2] came out at 0.85 ug/min*cm^2. In addition, in series [3] (K/K, indicator of physical stability), the Tm/Tg ratio came to 1.30. The Tg in series [3] (listed as Compound A Free Base) and in series [3] (listed as free base) was 95 °C each time. Also, the pIC50 (commonly −log10 of the IC50, conventionally taken in molar units) in series [4] is 7.20; in series [5], 8.15.
